Assay results from US20030049709A1, “Programmed cell death and Ich-3” (priority 1996, published 2003).

Tests used:
His-tagged ICH-3 protein = target: T1, His-tagged ICH-3 protein (Mus musculus, UniProt P70343); assay: In vitro cleavage assay of ICH-3 by GraB (Western blot); assay type: biochemical; conditions: 20 ng GraB, 30° C., 1 hour, 10 mM DTT
T1 construct: An EcoRI fragment from the cDNA clone BSNO12 encoding the full length Ich-3 was subdloned into EcoRI site of pTrcHis (Invitrogen); polyhistidine (six histidines) (N); made in house; host or cells: E. coli
T1 sequence (P70343 81-373): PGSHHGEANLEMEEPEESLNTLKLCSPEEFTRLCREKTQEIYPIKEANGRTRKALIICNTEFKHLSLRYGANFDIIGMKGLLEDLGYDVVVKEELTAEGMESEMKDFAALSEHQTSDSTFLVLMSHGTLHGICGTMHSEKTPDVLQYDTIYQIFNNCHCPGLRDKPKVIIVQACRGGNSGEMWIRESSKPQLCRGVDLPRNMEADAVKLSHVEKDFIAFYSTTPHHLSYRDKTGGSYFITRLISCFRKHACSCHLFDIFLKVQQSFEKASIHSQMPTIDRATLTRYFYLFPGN
Description: FIG. 5. Cleavage of ICH-3 protein by granzyme B. 10 μg His-tagged ICH-3 protein purified from E. coli was incubated with 20 ng of GraB in the presence of 10 mM DTT at 30° C. for 1 hour. The result was detected by Western blotting with a peptide antibody against p20 portion of ICH-3.
For in vitro cleavage of ICH-3 by GraB, […] purified His-tagged ICH-3 protein was incubated with 20 ng of GraB in the presence of 50 mM Tris-HCl, pH 7.5, 0.5 mM EDTA, 0.5 mM Sucrose and 10 mM DTT in a total volume of 10 μl. The mixture was incubated at 30° C. for 1 hour and the cleavage was detected by Western blotting with a peptide antibody against the p20 portion of ICH-3.
To examine whether GraB can cleave ICH-3, a His-tagged ICH-3 protein was expressed in E. coli. His-tagged ICH-3 protein purified from bacteria was mixed with or without active GraB and incubated at 30° C. for 1 hour. The cleavage products were identified by Western blot with a peptide antibodies against the p20 or a monoclonal antibody against p10 portion of ICH-3. As show in FIG. 5, the fulll length ICH-3 band disappeared after incubation with GraB: a new 20 kDa band appeared which is detected by an anti-ICH-3 p20 antibody and a new 10 kDa band which is recognized by a monoclonal antibody against p10 of ICH-3. […] Fragments around 30 kDa are the predicted sizes of the cleavages at Asp 59 and Asp 80. […]

embryonic fibroblasts = assay: Granzyme/perforin induced apoptosis of embryonic fibroblasts (Hoechst dye); assay type: cell-based, mice; conditions: Ich-3−/− EF cells; up to 0.8 μg/ml granzyme with 50 ng/ml perforin
Description: FIGS. 9A-9B. Ich-3 deficient EF cells are resistant to Granzyme B and Granzyme 3 induced apoptosis. Embryonic fibroblasts from Ich-3−/− and wild type controls were treated with varying concentrations of granzyme B (FIG. 9A) or granzyme 3 (FIG. 9B) in the presence of a constant amount of perforin (50 ng/ml) for a period of 2 and 8 hrs, respectively. The percentage of apoptosis cells was determined from cell counts after staining with Hoechst dye (Chen et al., 1995). Control wells contained cells alone incubated with or without perforin. Data points represent the percentage of apoptotic cells for a particular dilution of granzyme minus the percentage of apoptotic cells observed in medium alone.
Granule serine protease (GraB) derived from cytotoxic T lymphocytes (CTL) can induce apoptosis in the presence of the pore forming protein perforin (Shi et al., J. Exp. Med. 176:1521-1529 (1992)). To determine the role of ICH-3 in apoptosis induced by GraB, the ability of Ich-3−/− embryonic fibroblasts (EF) to undergo apoptosis following treatment with GraB or Granzyme 3 (Gra3) and perforin was examined. Embryonic fibroblasts from Ich-3−/− mice and wild type littermate controls were treated with varying concentrations of GraB or Gra3 in the presence of a constant amount of perforin (50 ng/ml) for a period of 2 and 8 hrs, respectively.

[1] = target: ICH-3 protein (mouse) (mouse) (UniProt P70343)
thymocytes = assay: Thymocyte apoptosis under other apoptotic stimuli; assay type: cell-based, mice; conditions: Ich-3 mutant thymocytes; dexamethasone 1 μM; 10 nM PMA and 500 nM Ca2+ ionophore
Description: Thymocytes are sensitive to several apoptotic stimuli such as irradiation and dexamethasone (Cohen, J. J., et al., Annu. Rev. Immunol. 10:267-293 (1992)). To determine if apoptosis of thymocytes is affected by a mutation in the Ich-3 locus, Ich-3−/− thymocytes were examined for defects in apoptosis using a variety of apoptotic induction signals. Thymocytes isolated from 6-7 week old, wild-type and Ich-3 mutant mice were treated with 500 rads of y-irtadiation, or dexamethasone (1(IM, or 10 nM phorbol myristate acetate (PMA) and 500 nM Ca^2+ ionophore, and cell viability was examined 10 hr or 24 hr after treatment by using FCAS analysis after staining with propidine iodine. (Schwartz, et al., “Cell Death—Methods in Cell Biology.” vol. 46, Academic Press).

[2] = system: poly(ADP-ribose) polymerase (PARP) cleavage; conditions: cited from earlier work
[3] = system: apoptosis in an cell-free system; conditions: read-out: concentration to cause 50% inhibition of apoptosis; cited from earlier work

## GraB: granule serine protease required for the cytotoxic activity of lymphocytes
His-tagged ICH-3 protein
  cleavage of ICH-3: can cleave ICH-3 into p20 and p10
Embryonic fibroblasts
  apoptosis of EF cells: only baseline levels of apoptosis

## granzyme B (enzyme)
[1]
  percentage of apoptotic embryonic fibroblasts (Hoechst dye) after GraB and perforin: 40%

## phorbol myristate acetate [PMA and Ca^2+ ionophore]
thymocytes
  resistance of thymocytes to induced apoptosis: not resistant

## Ac-DEVD-CHO
[2]
  dose inhibiting PARP cleavage: 1 nM
[3]
  IC50: 1000 nM

B1: Gra3: Granzyme 3 (protein, UniProt P49863 27-264, looked up)
Granzyme K: IIGGKEVSPHSRPFMASIQYGGHHVCGGVLIDPQWVLTAAHCQYRFTKGQSPTVVLGAHSLSKNEASKQTLEIKKFIPFSRVTSDPQSNDIMLVKLQTAAKLNKHVKMLHIRSKTSLRSGTKCKVTGWGATDPDSLRPSDTLREVTVTVLSRKLCNSQSYYNGDPFITKDMVCAGDAKGQKDSCKGDSGGPLICKGVFHAIVSGGHECGVATKPGIYTLLTKKYQTWIKSNLVPPHTN
Embryonic fibroblasts
  apoptosis of EF cells: only baseline levels of apoptosis
